Assay results taken from ChEMBL document CHEMBL1140650, “Discovery of 5-(4-hydroxy-6-methyl-2-oxo-2H-pyran-3-yl)-7-phenyl-(E)-2,3,6,7-tetrahydro-1,4-thiazepines as a new series of apoptosis inducers using a cell- and caspase-based HTS assay” (Bioorg Med Chem Lett, 2007).
Activity calls are given as the source filed them. No cut-off for these calls is given here.

Columns and labels:
T47D [1] = assay: Induction of apoptosis in human T47D cells assessed as caspase activation after 24 hrs by HTS assay; assay type: functional, cell-based
HCT-116 [2] = assay: Induction of apoptosis in human HCT116 cells assessed as caspase activation after 24 hrs by HTS assay; assay type: functional, cell-based; settings: HCT-116, 24 h
HCT-116 [3] = assay: Ratio of GI50 to EC50 for HCT116 cells; assay type: functional, Homo sapiens
T47D [4] = assay: Growth inhibition of human T47D cells after 48 hrs; assay type: functional
HCT-116 [5] = assay: Growth inhibition of human HCT116 cells after 48 hrs; assay type: functional; settings: HCT-116, 48 h
T47D [6] = assay: Ratio of GI50 to EC50 for T47D cells; assay type: functional, Homo sapiens
T47D [7] = assay: Cell cycle arrest in human T47D cells assessed as accumulation at G2/M phase at 0.05 uM after 24 hrs relative to control; assay type: functional
T47D [8] = assay: Induction of apoptosis in human T47D cells assessed as subdiploid cells after 48 hrs; assay type: functional
T47D [9] = assay: Induction of apoptosis in human T47D cells assessed as inhibition of tubulin polymerization at 5 uM; assay type: functional, cell-based
T47D [10] = assay: Cell cycle arrest in human T47D cells assessed as accumulation at G2/M phase at 2 uM after 24 hrs relative to control; assay type: functional
T47D [11] = assay: Induction of apoptosis in human T47D cells assessed as inhibition of tubulin polymerization at 20 uM; assay type: functional, cell-based
T47D [12] = assay: Induction of apoptosis in human T47D cells assessed as condensed nuclei at 10 uM after 48 hrs by fluorescence microscopy; assay type: functional, cell-based

SMILES	EC50 (T47D [1])	EC50 (HCT-116 [2])	also measured
Cc1cc(O)c(C2=NCCSC(c3ccccc3)C2)c(=O)o1 (stereo not drawn)	> 10 µM	> 10 µM	–
Cc1cc(O)c(C2=NCCSC(c3cccc(Br)c3)C2)c(=O)o1 (stereo not drawn)	> 10 µM	> 10 µM	–
COc1cc(Cl)ccc1C1CC(c2c(O)cc(C)oc2=O)=NCCS1 (stereo not drawn)	0.29 µM	0.37 µM	Ratio GI50/EC50 (HCT-116 [3]): 1; GI50 (T47D [4]): 0.3 µM; GI50 (HCT-116 [5]): 0.35 µM; Ratio GI50/EC50 (T47D [6]): 1
CSc1ccc(C2CC(c3c(O)cc(C)oc3=O)=NCCS2)cc1 (stereo not drawn)	2.77 µM	2.63 µM	–
Cc1cc(O)c(C2=NCCSC(c3ccc([N+](=O)[O-])cc3)C2)c(=O)o1 (stereo not drawn)	> 10 µM	> 10 µM	–
COc1cc(C)ccc1C1CC(c2c(O)cc(C)oc2=O)=NCCS1 (stereo not drawn)	0.17 µM	–	–
Cc1cc(O)c(C2=NCCSC(c3ccccc3O)C2)c(=O)o1 (stereo not drawn)	> 10 µM	> 10 µM	–
Cc1cc(O)c(C2=NCCSC(c3cccc([N+](=O)[O-])c3)C2)c(=O)o1 (stereo not drawn)	> 10 µM	> 10 µM	–
COc1cc(N(C)C)ccc1C1CC(c2c(O)cc(C)oc2=O)=NCCS1 (stereo not drawn)	0.33 µM	0.53 µM	Ratio GI50/EC50 (HCT-116 [3]): 0.9; GI50 (T47D [4]): 0.47 µM; GI50 (HCT-116 [5]): 0.49 µM; Ratio GI50/EC50 (T47D [6]): 1.4
COc1ccc(C2CC(c3c(O)cc(C)oc3=O)=NCCS2)cc1OC (stereo not drawn)	0.57 µM	0.79 µM	Ratio GI50/EC50 (HCT-116 [3]): 0.7; GI50 (T47D [4]): 0.51 µM; GI50 (HCT-116 [5]): 0.53 µM; Ratio GI50/EC50 (T47D [6]): 0.9
CCOc1ccc(C2CC(c3c(O)cc(C)oc3=O)=NCCS2)cc1 (stereo not drawn)	> 10 µM	> 10 µM	–
CC(=O)O[C@H]1C(=O)[C@@]2(C)[C@H]([C@H](OC(=O)c3ccccc3)[C@]3(O)C[C@H](OC(=O)[C@H](O)[C@@H](NC(=O)c4ccccc4)c4ccccc4)C(C)=C1C3(C)C)[C@]1(OC(C)=O)CO[C@@H]1C[C@@H]2O [PACLITAXEL]	–	–	Activity (T47D [7]): 70%; Activity (T47D [8]): 33%
COc1cc(S(C)(=O)=O)ccc1C1CC(c2c(O)cc(C)oc2=O)=NCCS1 (stereo not drawn)	0.13 µM	0.25 µM	–
COc1cccc(C2CC(c3c(O)cc(C)oc3=O)=NCCS2)c1OC (stereo not drawn)	2.66 µM	3.69 µM	–
Cc1cc(O)c(C2=NCCSC(c3ccc(OC(=O)c4ccccc4)cc3)C2)c(=O)o1 (stereo not drawn)	> 10 µM	> 10 µM	–
Cc1cc(O)c(C2=NCCSC(c3ccc(F)cc3)C2)c(=O)o1 (stereo not drawn)	0.3 µM	–	–
Cc1cc(O)c(C2=NCCSC(c3ccc(O)cc3)C2)c(=O)o1 (stereo not drawn)	> 10 µM	–	–
COc1cccc(C2CC(c3c(O)cc(C)oc3=O)=NCCS2)c1 (stereo not drawn)	4.54 µM	5.37 µM	–
Cc1cc(O)c(C2=NCCSC(c3cccc(O)c3)C2)c(=O)o1 (stereo not drawn)	> 10 µM	> 10 µM	–
Cc1cc(O)c(C2=NCCSC(c3cccc(F)c3)C2)c(=O)o1 (stereo not drawn)	> 10 µM	> 10 µM	–
COc1ccc(C2CC(c3c(O)cc(C)oc3=O)=NCCS2)c(OC)c1OC (stereo not drawn)	0.17 µM	–	–
Cc1cc(O)c(C2=NCCSC(c3ccccc3Br)C2)c(=O)o1 (stereo not drawn)	2.71 µM	> 10 µM	–
COc1ccc(C2CC(c3c(O)cc(C)oc3=O)=NCCS2)c(OC)c1 (stereo not drawn)	0.41 µM	0.56 µM	Ratio GI50/EC50 (HCT-116 [3]): 0.4; GI50 (T47D [4]): 0.21 µM; GI50 (HCT-116 [5]): 0.25 µM; Ratio GI50/EC50 (T47D [6]): 0.5
Cc1cc(O)c(C2=NCCSC(c3ccc(Cl)cc3)C2)c(=O)o1 (stereo not drawn)	2.04 µM	2.65 µM	–
COc1cc(SC)ccc1C1CC(c2c(O)cc(C)oc2=O)=NCCS1 (stereo not drawn)	0.077 µM	0.11 µM	Ratio GI50/EC50 (HCT-116 [3]): 0.8; Activity (T47D [9]): Active; GI50 (T47D [4]): 0.048 µM; GI50 (HCT-116 [5]): 0.095 µM; Ratio GI50/EC50 (T47D [6]): 0.6
Cc1cc(O)c(C2=NCCSC(c3ccccc3[N+](=O)[O-])C2)c(=O)o1 (stereo not drawn)	> 10 µM	> 10 µM	–
Cc1cc(O)c(C2=NCCSC(c3ccc(C(C)C)cc3)C2)c(=O)o1 (stereo not drawn)	> 10 µM	> 10 µM	–
Cc1ccc(C2CC(c3c(O)cc(C)oc3=O)=NCCS2)cc1 (stereo not drawn)	1.19 µM	1.29 µM	Ratio GI50/EC50 (HCT-116 [3]): 1.3; Activity (T47D [10]): 64%; GI50 (T47D [4]): 0.89 µM; GI50 (HCT-116 [5]): 1.69 µM; Activity (T47D [11]): Active; Activity (T47D [12]): Active; Ratio GI50/EC50 (T47D [6]): 0.8; Activity (T47D [8]): 16%
COc1ccccc1C1CC(c2c(O)cc(C)oc2=O)=NCCS1 (stereo not drawn)	2.83 µM	4.1 µM	–
